In ChEMBL document CHEMBL1649246, “Complete nucleotide sequences of plasmids pEK204, pEK499, and pEK516, encoding CTX-M enzymes in three major Escherichia coli lineages from the United Kingdom, all belonging to the international O25:H4-ST131 clone” (2009) one finds MIC data, which are given here for 23 molecules.

Converted amounts (≈) assume the structure as drawn.

Common to all, as to assay type: functional
Assay [1] deals with Escherichia coli. Put plainly: Antimicrobial activity against Escherichia coli J53 harboring pEK204 plasmid encoding CTX-M extended-spectrum beta-lactamases.
For assay [2], the system named is Escherichia coli. Put plainly: Antimicrobial activity against Escherichia coli J53.
Assay [3] relates to Escherichia coli. Put plainly: Antimicrobial activity against Escherichia coli DH5[alpha].
The test system of assay [4] is Escherichia coli. The assay can be described thus: Antimicrobial activity against Escherichia coli DH5[alpha] harboring pEK516 plasmid encoding CTX-M extended-spectrum beta-lactamases.
In assay [5] the test system is Escherichia coli. Put plainly: Antimicrobial activity against Escherichia coli J53 harboring pEK499 plasmid encoding CTX-M extended-spectrum beta-lactamases.
The test system of assay [6] is Escherichia coli. The assay can be described thus: Antimicrobial activity against Escherichia coli J53 in presence of beta-lactamase inhibitor Tazobactam.
Assay [7] concerns Escherichia coli. Put plainly: Antimicrobial activity against Escherichia coli J53 harboring pEK499 plasmid encoding CTX-M extended-spectrum beta-lactamases in presence of beta-lactamase inhibitor Tazobactam.
The test system of assay [8] is Escherichia coli. The assay can be described thus: Antimicrobial activity against Escherichia coli DH5[alpha] harboring pEK516 plasmid encoding CTX-M extended-spectrum beta-lactamases in presence of beta-lactamase inhibitor Tazobactam.
The test system of assay [9] is Escherichia coli. Put plainly: Antimicrobial activity against Escherichia coli J53 harboring pEK204 plasmid encoding CTX-M extended-spectrum beta-lactamases in presence of beta-lactamase inhibitor Tazobactam.
Assay [10] relates to Escherichia coli. Put plainly: Antimicrobial activity against Escherichia coli DH5[alpha] in presence of beta-lactamase inhibitor Tazobactam.
Assay [11] relates to Escherichia coli. Put plainly: Antimicrobial activity against Escherichia coli J53 in presence of beta-lactamase inhibitor clavulanic acid.
Assay [12] relates to Escherichia coli. The assay can be described thus: Antimicrobial activity against Escherichia coli DH5[alpha] in presence of beta-lactamase inhibitor clavulanic acid.
Assay [13] relates to Escherichia coli. The assay can be described thus: Antimicrobial activity against Escherichia coli J53 harboring pEK204 plasmid encoding CTX-M extended-spectrum beta-lactamases in presence of beta-lactamase inhibitor clavulanic acid.
Assay [14] has as its system Escherichia coli. Put plainly: Antimicrobial activity against Escherichia coli J53 harboring pEK499 plasmid encoding CTX-M extended-spectrum beta-lactamases in presence of beta-lactamase inhibitor clavulanic acid.
Assay [15] deals with Escherichia coli. Put plainly: Antimicrobial activity against Escherichia coli DH5[alpha] harboring pEK516 plasmid encoding CTX-M extended-spectrum beta-lactamases in presence of beta-lactamase inhibitor clavulanic acid.

With `COc1cc(Cc2cnc(N)nc2N)cc(OC)c1OC` [TRIMETHOPRIM], the MIC against Escherichia coli [1] was 0.06 µg/mL (≈ 0.207 µM); in the assay on Escherichia coli [2], 0.06 µg/mL (≈ 0.207 µM); against Escherichia coli [3], 0.06 µg/mL (≈ 0.207 µM); against Escherichia coli [4], 0.03 µg/mL (≈ 0.103 µM); against Escherichia coli [5] it was more than 32 µg/mL.
As for `NCC[C@H](O)C(=O)N[C@@H]1C[C@H](N)[C@@H](O[C@H]2O[C@H](CN)[C@@H](O)[C@H](O)[C@H]2O)[C@H](O)[C@H]1O[C@H]1O[C@H](CO)[C@@H](O)[C@H](N)[C@H]1O` [AMIKACIN], the MIC in the assay with Escherichia coli [2] was not above 0.5 µg/mL; against Escherichia coli [3], 1 µg/mL (≈ 1.71 µM); in the assay on Escherichia coli [4], 2 µg/mL (≈ 3.42 µM); with Escherichia coli [5], 4 µg/mL (≈ 6.83 µM).
With `CN(C)[C@@H]1C(O)=C(C(N)=O)C(=O)[C@@]2(O)C(O)=C3C(=O)c4c(O)cccc4[C@@](C)(O)[C@H]3C[C@@H]12` [TETRACYCLINE], the MIC against Escherichia coli [1] came to 1 µg/mL (≈ 2.25 µM); in the assay on Escherichia coli [2], 1 µg/mL (≈ 2.25 µM); against Escherichia coli [3], 1 µg/mL (≈ 2.25 µM); in the assay on Escherichia coli [4], 32 µg/mL (≈ 72 µM); with Escherichia coli [5], 32 µg/mL (≈ 72 µM).
As for `O=C(O)c1cn(C2CC2)c2cc(N3CCNCC3)c(F)cc2c1=O` [CIPROFLOXACIN], the MIC with Escherichia coli [2] and against Escherichia coli [3] was not above 0.125 µg/mL in each case.
Turning to `C[C@@H](O)[C@H]1C(=O)N2C(C(=O)O)=C(S[C@@H]3CN[C@H](C(=O)N(C)C)C3)[C@H](C)[C@H]12` [MEROPENEM], the MIC in the assay with Escherichia coli [2] and against Escherichia coli [3] was not above 0.06 µg/mL in each case.
As to `CCN1CCN(C(=O)N[C@@H](C(=O)N[C@@H]2C(=O)N3[C@@H]2SC(C)(C)[C@@H]3C(=O)O)c2ccccc2)C(=O)C1=O` [PIPERACILLIN], the MIC with Escherichia coli [6] is 4 µg/mL; in the assay with Escherichia coli [1] it was more than 64 µg/mL; in the assay on Escherichia coli [7], 16 µg/mL; in the assay with Escherichia coli [8], 4 µg/mL; with Escherichia coli [9], 4 µg/mL; in the assay on Escherichia coli [10], 4 µg/mL. The MIC is 4 µg/mL (≈ 7.73 µM) against Escherichia coli [2], 4 µg/mL (≈ 7.73 µM) with Escherichia coli [3], 64 µg/mL (≈ 124 µM) against Escherichia coli [4] and more than 64 µg/mL against Escherichia coli [5].
Regarding `C[C@@H](O)[C@H]1C(=O)N2C(C(=O)O)=C(SCCNC=N)C[C@H]12` [IMIPENEM ANHYDROUS], the MIC was found to be 0.25 µg/mL (≈ 0.835 µM) against Escherichia coli [2] and 0.5 µg/mL (≈ 1.67 µM) in the assay with Escherichia coli [3].
Turning to `CO[C@@]1(NC(=O)Cc2cccs2)C(=O)N2C(C(=O)O)=C(COC(N)=O)CS[C@@H]21` [CEFOXITIN], the MIC against Escherichia coli [1], against Escherichia coli [2], with Escherichia coli [3], against Escherichia coli [4] and against Escherichia coli [5] was 8 µg/mL (≈ 18.7 µM) each time.
Regarding `CO/N=C(\C(=O)N[C@@H]1C(=O)N2C(C(=O)[O-])=C(C[n+]3cccc4c3CCC4)CS[C@H]12)c1csc(N)n1` [CEFPIROME], the MIC in the assay with Escherichia coli [1] was 16 µg/mL (≈ 31.1 µM); with Escherichia coli [2], not above 0.125 µg/mL; against Escherichia coli [3] it was not above 0.125 µg/mL; with Escherichia coli [4], 64 µg/mL (≈ 124 µM); with Escherichia coli [11], not above 0.06 µg/mL; in the assay on Escherichia coli [12], not above 0.06 µg/mL. Moreover, the MIC against Escherichia coli [5] is more than 64 µg/mL.
In the case of `C[C@H]1[C@H](NC(=O)/C(=N\OC(C)(C)C(=O)O)c2csc(N)n2)C(=O)N1S(=O)(=O)O` [AZTREONAM], the MIC was 8 µg/mL (≈ 18.4 µM) with Escherichia coli [1], 0.25 µg/mL (≈ 0.574 µM) in the assay on Escherichia coli [3], 32 µg/mL (≈ 73.5 µM) against Escherichia coli [4] and more than 64 µg/mL with Escherichia coli [5].
Turning to `CC1(C)S[C@@H]2[C@H](NC(=O)[C@H](N)c3ccc(O)cc3)C(=O)N2[C@H]1C(=O)O` [AMOXICILLIN], the MIC in the assay on Escherichia coli [13] was found to be 16 µg/mL; with Escherichia coli [11], 8 µg/mL; in the assay with Escherichia coli [14], 32 µg/mL; in the assay with Escherichia coli [12], 8 µg/mL; with Escherichia coli [15] it was 16 µg/mL.
As to `CN[C@@H]1[C@H](O[C@H]2[C@H](O[C@H]3[C@H](O)[C@@H](O)[C@H](N=C(N)N)[C@@H](O)[C@@H]3N=C(N)N)O[C@@H](C)[C@]2(O)C=O)O[C@@H](CO)[C@H](O)[C@H]1O` [STREPTOMYCIN], the MIC worked out at 2 µg/mL (≈ 3.44 µM) against Escherichia coli [1]; 1 µg/mL (≈ 1.72 µM) with Escherichia coli [2]; 1 µg/mL (≈ 1.72 µM) in the assay with Escherichia coli [3]; 0.5 µg/mL (≈ 0.86 µM) in the assay with Escherichia coli [4]; 32 µg/mL (≈ 55 µM) in the assay with Escherichia coli [5].
As for `NC[C@H]1O[C@H](O[C@H]2[C@H](O)[C@@H](O[C@H]3O[C@H](CO)[C@@H](O)[C@H](N)[C@H]3O)[C@H](N)C[C@@H]2N)[C@H](N)C[C@@H]1O` [TOBRAMYCIN], the MIC against Escherichia coli [1] amounted to 0.5 µg/mL (≈ 1.07 µM); against Escherichia coli [2], 0.25 µg/mL (≈ 0.535 µM); in the assay on Escherichia coli [3], 0.5 µg/mL (≈ 1.07 µM); against Escherichia coli [4], 8 µg/mL (≈ 17.1 µM); against Escherichia coli [5] it was 8 µg/mL (≈ 17.1 µM).
For `CC(C)(O/N=C(\C(=O)N[C@@H]1C(=O)N2C(C(=O)[O-])=C(C[n+]3ccccc3)CS[C@H]12)c1csc(N)n1)C(=O)O` [CEFTAZIDIME], the MIC in the assay with Escherichia coli [1] was 2 µg/mL (≈ 3.66 µM); against Escherichia coli [2], 0.25 µg/mL (≈ 0.457 µM); with Escherichia coli [13], 0.25 µg/mL; in the assay on Escherichia coli [3], 0.25 µg/mL (≈ 0.457 µM); in the assay on Escherichia coli [4] it was 16 µg/mL (≈ 29.3 µM); in the assay with Escherichia coli [11], 0.25 µg/mL. Besides, the MIC with Escherichia coli [14] was 0.5 µg/mL; in the assay on Escherichia coli [12] it was 0.25 µg/mL; with Escherichia coli [15] it was 0.25 µg/mL; against Escherichia coli [5], 64 µg/mL (≈ 117 µM).
As for `O=C(N[C@H](CO)[C@H](O)c1ccc([N+](=O)[O-])cc1)C(Cl)Cl` [CHLORAMPHENICOL], the MIC in the assay on Escherichia coli [1], in the assay on Escherichia coli [2], in the assay on Escherichia coli [3], against Escherichia coli [4] and against Escherichia coli [5] was 2 µg/mL (≈ 6.19 µM) throughout.
For the molecule `CN(C)c1cc(NC(=O)CNC(C)(C)C)c(O)c2c1C[C@H]1C[C@H]3[C@H](N(C)C)C(O)=C(C(N)=O)C(=O)[C@@]3(O)C(O)=C1C2=O` [TIGECYCLINE], the MIC against Escherichia coli [2] and in the assay on Escherichia coli [3] was not above 0.25 µg/mL in each case.
Turning to `CN(C)c1ccc(O)c2c1C[C@H]1C[C@H]3[C@H](N(C)C)C(O)=C(C(N)=O)C(=O)[C@@]3(O)C(O)=C1C2=O` [MINOCYCLINE], the MIC with Escherichia coli [1] was 0.25 µg/mL (≈ 0.546 µM); in the assay with Escherichia coli [2], 0.25 µg/mL (≈ 0.546 µM); with Escherichia coli [3] it was 0.25 µg/mL (≈ 0.546 µM); in the assay on Escherichia coli [4], 4 µg/mL (≈ 8.74 µM); against Escherichia coli [5] it was 2 µg/mL (≈ 4.37 µM).
In the case of `Cc1cc(NS(=O)(=O)c2ccc(N)cc2)no1` [SULFAMETHOXAZOLE], the minimal inhibitory concentration (MIC) in the assay on Escherichia coli [1] was 16 µg/mL (≈ 63.2 µM); against Escherichia coli [2], 16 µg/mL (≈ 63.2 µM); against Escherichia coli [3], 2 µg/mL (≈ 7.9 µM); in the assay on Escherichia coli [4] it was 2 µg/mL (≈ 7.9 µM); with Escherichia coli [5] it was more than 1020 µg/mL.
Turning to `CO/N=C(\C(=O)N[C@@H]1C(=O)N2C(C(=O)O)=C(COC(C)=O)CS[C@H]12)c1csc(N)n1` [CEFOTAXIME], the MIC against Escherichia coli [1] is 64 µg/mL (≈ 141 µM); against Escherichia coli [2] it was not above 0.125 µg/mL; in the assay on Escherichia coli [13], 0.125 µg/mL; in the assay on Escherichia coli [3] it was 0.25 µg/mL (≈ 0.549 µM); with Escherichia coli [4] it was 128 µg/mL (≈ 281 µM); in the assay on Escherichia coli [11], not above 0.06 µg/mL. Besides, the results for the MIC with Escherichia coli [14], with Escherichia coli [12] and in the assay with Escherichia coli [5] were 0.125 µg/mL, not above 0.06 µg/mL and 256 µg/mL (≈ 562 µM), respectively.
GENTAMICIN: the MIC in the assay on Escherichia coli [1] is 0.25 µg/mL; in the assay with Escherichia coli [2], 0.25 µg/mL; against Escherichia coli [4], 8 µg/mL; against Escherichia coli [5], 0.25 µg/mL.
Turning to COLISTIN, the MIC in the assay with Escherichia coli [1], with Escherichia coli [2], in the assay with Escherichia coli [3], against Escherichia coli [4] and with Escherichia coli [5] was less than 0.5 µg/mL each time.
Take `CC1(C)S[C@@H]2[C@H](NC(=O)[C@H](N)c3ccccc3)C(=O)N2[C@H]1C(=O)O` [AMPICILLIN]: the MIC against Escherichia coli [1] was more than 64 µg/mL; in the assay on Escherichia coli [2] it was 8 µg/mL (≈ 22.9 µM); against Escherichia coli [3], 16 µg/mL (≈ 45.8 µM); against Escherichia coli [4], more than 64 µg/mL; in the assay with Escherichia coli [5] it was more than 64 µg/mL.
Regarding `C[C@@H](O)[C@H]1C(=O)N2C(C(=O)O)=C(S[C@@H]3CN[C@H](C(=O)Nc4cccc(C(=O)O)c4)C3)[C@H](C)[C@H]12`, the MIC in the assay on Escherichia coli [2] and against Escherichia coli [3] was not above 0.125 µg/mL throughout.
